Reference: the NIST ThermoML archive (doi:10.1016/j.fluid.2013.11.023)
± gives the expanded uncertainty stated by the source.

Conditions: Crystal; DTA

- Normal melting temperature: 118.60 ± 4 °C
SMILES: Brc1sc(Br)c(Br)c1Br [perbromothiophene]
